In patent US20050244413A1, “Compositions and methods for treating cancer using cytotoxic CD44 antibody immunoconjugates and chemotherapeutic agents” (priority 2002, published 2005):
“And” between values parts separate entries of the source, which are not always exact repeats. Equal entries are not always repeated. Where two headings read alike, the source gives them in different places.

Tests used:
[1] = tested on: FaDuDD tumors; assay: BIWI 1 combination with docetaxel in nude mice xenografted with FaDuDD tumors; assay type: in vivo, mouse
Method: The antibody solution was injected into the tail vein with an injection volume of 200 μl for a 25 g mouse. In the control groups without BIWI 1 treatment animals were injected i.v. with PBS. […] The solution was injected into the tail vein with an injection volume of 200 μl for a 25 g mouse. […] The solution was injected into the tail vein with an injection volume of 200 μl for a 25 g mouse.
Tumor sizes and body weights were recorded 2-3 times per week. Tumor sizes were measured with a calliper (length and width) and the volume was calculated according to the following formula: volume (length)×(width)^2×([…]). The tolerability of the treatment was monitored by measuring mouse weight during the whole observation period. […] For calculation of the mean tumor volumes per group, the last values of tumor size for individual animals were carried forward in case that these animals had to be sacrificed due to large tumor burden before the whole group was terminated. In addition to the absolute tumor volume in mm^3, the relative tumor volumes (RTV) were calculated as follows:
RTV=(tumor volume at day x)/(tumor volume at start of treatment)×100 For the evaluation of treatment efficacy the following parameters were calculated: • T/C (%)=(mean RTV of treated group)/(mean RTV of control group)×100 • T4T (tumor quadrupling time)=time until the mean RTV reaches 400% • GDF4 (growth delay factor)=T4T treated/T4T control.
In addition, for some experiments, the mean time for tumors to reach 8 times (T8T) their initial sizes were also calculated. The growth delay factor (GDF8) was then calculated accordingly. Percentages of mean relative tumor volumes of treated versus control groups (T/C) were calculated on the days indicated. For statistical evaluation of combination therapies exact Wilcoxon tests were used. Tolerability was assessed by monitoring body weight changes.
To assess the efficacy of BIWI 1 in combination with the taxane docetaxel (Taxotere), non-curative doses of both drugs were tested as single agents or in combination in nude mice xenografted with FADuDD tumors. In pilot experiments a dose of 3 mg/kg docetaxel (q7dx4) was determined to be non-curative in this model. BIWI 1 was used at the non-curative dose of 200 μg/kg DM 1 and at a somewhat higher dose (300 μg/kg DM1).
The effect was somewhat more pronounced in the two BIWI 1 monotherapy treatment groups with T/C 41-30% and GDF4: 2.8-4.4. Complete tumor regression could be observed in 1/8 cases with the higher BIWI 1 dose. […] Treatment was well tolerated in all groups, except for a slight unexplained weight loss (approx. −5%) in the docetaxel monotherapy group.

[2] = tested on: antigen-negative cell line A549; assay: In vitro cytotoxicity, MTS/PMS cell proliferation assay, A549; assay type: cell-based; details: A549 cells, highest concentration of BIWI 1 tested (5×1 0-7 M), 4 days
Method: (§1) For determination of viable cells the Cell Titer 96® AQueous non-radioactive cell proliferation assay (Promega) was used. Five thousand cells per well were seeded into 96-well plates in 90 μl medium without phenole red. Cells were allowed to settle down for 1 to 3 h and then serial dilutions of the immunoconjugate in 10 μl PBS were added. Cells without immunoconjugate served as negative control. Cells were incubated for 4 days at 37° C. in a humified 5% CO2 atmosphere and then 20 μl MTS/PMS were added according to the manufacturer's recommendation. After additional 1 to 4 h incubation at 37° C. the absorbance at 490 nm was recorded using an ELISA plate reader. For each cell line triplicates were analyzed. The percentage of the surviving cell fraction and the IC50 value were calculated using the GraphPad Prism® (Version 3.0) software.
(§2) The in vitro cytotoxicity of BIWI 1 was evaluated using the antigen-positive cell lines A431 and FaDu, and the antigen-negative cell line […]. Cells were exposed to different concentrations of BIWI 1 for 4 days, then stained with MTS/PMS and assayed on an ELISA plate reader. The surviving fractions of cells were then calculated using the GraphPad Prism® software package.

[3] = tested on: antigen-positive cell line FaDu; assay: In vitro cytotoxicity, MTS/PMS cell proliferation assay, FaDu; assay type: cell-based, human; details: FaDu cells, 4 days exposure
Method: as §1, §2

[4] = tested on: mouse CD44v6; assay: Cross-reactivity with mouse CD44v6; assay type: binding
[5] = tested on: antigen-positive A431 cells; assay: In vitro cytotoxicity, MTS/PMS cell proliferation assay, A431; assay type: cell-based, human; details: 4 days exposure
Method: as §1, §2

[6] = tested on: MDA-MB-453 tumors; details: BIWI 1 75 μg/kg DM1 i.v. q7dx4
Method: Experiments were performed using nude mice xenografted subcutaneously with the human breast carcinoma cell line MDA-MBA53. […] The efficacy of these combinations was compared to those of the respective monotherapies by i) analysing the tumor volumes over time and ii) by determining the time for tumors to reach a certain size (tumor growth delay).
The dilutions were prepared freshly for each application or stored at +4° C. during the whole treatment period. […] 200 μl of solutions with different concentrations were injected into the tail vein. Docetaxel (Taxotere®, Aventis, 10 mg/ml) was diluted in 0.9% NaCl. 200 μl of solutions with different concentrations were injected into the tail vein.
Briefly, 1×10^7 MDA-MB-453 cells (ATCC No. HTB-131) were injected into the mammary fat pad of female NMRI nu/nu mice. After reaching a volume of approximately 1000 mm^3 tumors were excised, cut into 4×4 mm pieces and passaged further subcutaneously. Tumor fragments were cryoconserved in 90% RPMI 1640/10% dimethylsulfoxide (slow freezing process down to −80° C., storage in liquid nitrogen). For further passaging, frozen tumor fragments were thawed, washed 3 times in PBS and implanted subcutaneously into the right and left flanks of a 4-5 female NMRI nu/nu mice. Tumors of these mice were then used to prepare the animals for a therapy experiment. Tumors were excised with a size of approximately 10 mm in diameter, cut into 2×2 mm pieces and implanted subcutaneously into the right flank of 6-8 week old female NMRI nu/nu mice. Approximately twice as many animals as needed for the experiment were prepared. When tumors reached a size of 5-10 mm in diameter (10-14 days after implantation), animals were randomised and treatments were started. Animals were obtained from Harlan (Germany) or M&B (Denmark). Tumor sizes and body weights were recorded as described in Section 2.7.

[7] = tested on: MDA-MB-453 tumors; assay: BIWI 1 combination with doxorubicin in nude mice xenografted with MDA-MB-453 tumors; assay type: in vivo, mouse
Method: Similar experiments as outlined under Section 2.6 were undertaken in a human breast carcinoma xenograft model. Experiments were performed using nude mice xenografted subcutaneously with the human breast carcinoma cell line MDA-MBA53. […] The efficacy of these combinations was compared to those of the respective monotherapies by i) analysing the tumor volumes over time and ii) by determining the time for tumors to reach a certain size (tumor growth delay).
The dilutions were prepared freshly for each application or stored at +4° C. during the whole treatment period. […] Doxorubicin (Doxorubicin “Ebewe”®, 2 mg/ml) was diluted in PBS. 200 μl of solutions with different concentrations were injected into the tail vein. Docetaxel (Taxotere®, Aventis, 10 mg/ml) was diluted in 0.9% NaCl. 200 μl of solutions with different concentrations were injected into the tail vein.
The xenograft model was handled slightly different as outlined under Section 2.1. Briefly, 1×10^7 MDA-MB-453 cells (ATCC No. HTB-131) were injected into the mammary fat pad of female NMRI nu/nu mice. After reaching a volume of approximately 1000 mm^3 tumors were excised, cut into 4×4 mm pieces and passaged further subcutaneously. Tumor fragments were cryoconserved in 90% RPMI 1640/10% dimethylsulfoxide (slow freezing process down to −80° C., storage in liquid nitrogen). For further passaging, frozen tumor fragments were thawed, washed 3 times in PBS and implanted subcutaneously into the right and left flanks of a 4-5 female NMRI nu/nu mice. Tumors of these mice were then used to prepare the animals for a therapy experiment. Tumors were excised with a size of approximately 10 mm in diameter, cut into 2×2 mm pieces and implanted subcutaneously into the right flank of 6-8 week old female NMRI nu/nu mice. Approximately twice as many animals as needed for the experiment were prepared. When tumors reached a size of 5-10 mm in diameter (10-14 days after implantation), animals were randomised and treatments were started. Animals were obtained from Harlan (Germany) or M&B (Denmark). Tumor sizes and body weights were recorded as described in Section 2.7.

[8] = BIWI 1 200 μg/kg DM1 i.v. q7dx4
[9] = BIWI 1 300 μg/kg DM1 i.v. q7dx4

## BIWI 1
[1]; [8]
  GDF4: 2.8
  T4T: 20.1 days
  T/C (d 16): 41%
[1]; BIWI 1 300 μg/kg DM1 (higher dose) q7dx4
  complete tumor regression: 1/8
[1]; [9]
  GDF4: 4.4
  T4T: 31.1 days
  T/C (d 16): 30%
[2]
  surviving fraction: 50%
[3]
  IC50: ~24 nM
[4]
  cross-reaction with mouse CD44v6: does not cross-react
[5]
  IC50: ~76 nM
[6]
  GDF4: 1.3
  T4T: 14 days and 14.1 days
  T/C (d 16): 75%
[7]; BIWI 1 50 μg/kg DM1 i.v. q7dx4
  GDF4: 1.0
  T/C (d13): 68%
[7]; BIWI 1 75 μg/kg DM1 i.v. q7dx4
  GDF4: 1.6
  T4T: 13 days and 13.0 days
  T/C (d13): 59%
[7]; BIWI 1 100 μg/kg DM1, q7dx4
  tumor bearing animals cured: 4/6
